Experimental findings from patent US6727264B1 (Synaptic Pharmaceutical Corporation, priority 2001, dated 2004) are described below.

What is called Ki is a measure of affinity in units of concentration, obtained from inhibition or displacement.

For one assay, the target named is rat MCH-1 (Rattus norvegicus, UniProt P97639). Nature of the assay: Radioligand binding assay at cloned rat MCH1 receptor ([3H] Compound A). The arrangement: host or cells: Peak rapid 293 (Peakr293) cells, transient calcium phosphate transfection, membranes.
rat MCH-1, sequence (P97639 whole entry): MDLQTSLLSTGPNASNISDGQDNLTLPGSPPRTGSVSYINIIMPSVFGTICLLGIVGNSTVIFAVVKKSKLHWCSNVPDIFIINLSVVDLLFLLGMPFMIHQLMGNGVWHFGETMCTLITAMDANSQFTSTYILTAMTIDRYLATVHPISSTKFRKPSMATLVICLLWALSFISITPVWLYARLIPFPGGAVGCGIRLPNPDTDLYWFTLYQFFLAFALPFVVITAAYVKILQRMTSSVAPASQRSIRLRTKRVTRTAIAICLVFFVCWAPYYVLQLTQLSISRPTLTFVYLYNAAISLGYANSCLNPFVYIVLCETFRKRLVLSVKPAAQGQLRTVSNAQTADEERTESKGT
Settings: not given
`CC(C)C(=O)Nc1cccc(C2CCN(Cc3cccc4[nH]ccc34)CC2)c1` [Example 830]: the Ki worked out at 469 nM.

The same assay, now with this note: cloned rat MCH1 receptor; 0.08 nM [3H] Compound A; Peakr293 cell membranes; read-out: Ki (nM) rMCH1.
On to `CC(C)C(=O)Nc1cccc(C2CCN(CCCc3c(-c4cccc([N+](=O)[O-])c4)n(-c4ccccc4)c4ccccc34)CC2)c1` [Example 771], for which the Ki came to 189 nM.

`CC(C)C(=O)Nc1cccc(C2CCN(CCCc3c(-c4cccc([N+](=O)[O-])c4)n(C)c4ccccc34)CC2)c1` [Example 772]: the inhibition constant (Ki) came to 14.9 nM.

Take `Cc1cccc2c(CCCN3CCC(c4cccc(NC(=O)C(C)C)c4)CC3)c(-c3cccc([N+](=O)[O-])c3)[nH]c12` [Example 773]: the Ki worked out at 23.8 nM.

For `COc1ccc2[nH]c(-c3ccc([N+](=O)[O-])cc3)c(CCCN3CCC(c4cccc(NC(=O)C(C)C)c4)CC3)c2c1` [Example 774], the inhibition constant Ki was 7.9 nM.

As to `CC(C)C(=O)Nc1cccc(C2CCN(CCCc3c(-c4ccccc4Br)[nH]c4ccccc34)CC2)c1` [Example 775], the Ki is 4.9 nM.

Take `Cc1ccc2[nH]c(-c3ccc([N+](=O)[O-])cc3)c(CCCN3CCC(c4cccc(NC(=O)C(C)C)c4)CC3)c2c1` [Example 776]: the Ki was 18.2 nM.

Take `CC(C)C(=O)Nc1cccc(C2CCN(CCCc3c(-c4ccc([N+](=O)[O-])cc4)[nH]c4c3ccc3ccccc34)CC2)c1` [Example 777]: the Ki amounted to 8.5 nM.

Take `CC(C)C(=O)Nc1cccc(C2CCN(CCCC/C(=N\Nc3ccccc3)c3ccc([N+](=O)[O-])cc3)CC2)c1` [Example 778]: the Ki is 26.5 nM.

In the case of `Cc1cccc2c(CCCN3CCC(c4cccc(NC(=O)C(C)C)c4)CC3)c(-c3ccc([N+](=O)[O-])cc3)[nH]c12` [Example 779], the Ki is 7.6 nM.

Regarding `CC(C)C(=O)Nc1cccc(C2CCN(CCCC/C(=N\Nc3ccc(OC(F)(F)F)cc3)c3ccc([N+](=O)[O-])cc3)CC2)c1` [Example 780], the Ki is 64.3 nM.

In the case of `CC(C)C(=O)Nc1cccc(C2CCN(CCCc3c(-c4ccccc4Br)[nH]c4c3ccc3ccccc34)CC2)c1` [Example 781], the inhibition constant (Ki) stood at 7.6 nM.

As to `CC(C)C(=O)Nc1cccc(C2CCN(CCCc3c(-c4ccccc4Br)[nH]c4ccc(OC(F)(F)F)cc34)CC2)c1` [Example 782], the Ki was found to be 18.1 nM.

Consider `Cc1cccc2c(CCCN3CCC(c4cccc(NC(=O)C(C)C)c4)CC3)c(-c3ccccc3Br)[nH]c12` [Example 783], for which the inhibitory constant (Ki) was 18 nM.

Turning to `CC(C)C(=O)Nc1cccc(C2CCN(CCCc3c(-c4ccccc4Br)n(-c4ccccc4)c4ccccc34)CC2)c1` [Example 784], the Ki worked out at 121 nM.

Consider `Cc1ccc2[nH]c(-c3ccccc3Br)c(CCCN3CCC(c4cccc(NC(=O)C(C)C)c4)CC3)c2c1` [Example 785], for which the inhibitory constant (Ki) came to 22.7 nM.

On to `CC(C)C(=O)Nc1cccc(C2CCN(CCCc3c(-c4ccccc4I)[nH]c4ccc(OC(F)(F)F)cc34)CC2)c1` [Example 786], for which the inhibition constant Ki amounted to 19.7 nM.

Consider `Cc1ccc2[nH]c(-c3ccccc3I)c(CCCN3CCC(c4cccc(NC(=O)C(C)C)c4)CC3)c2c1` [Example 787], for which the Ki was 21.6 nM.

`CC(C)C(=O)Nc1cccc(C2CCN(CCCc3c(-c4ccc([N+](=O)[O-])cc4)n(C)c4ccccc34)CC2)c1` [Example 788]: the Ki amounted to 11.1 nM.

With `CC(C)C(=O)Nc1cccc(C2CCN(CCCc3c(-c4ccc([N+](=O)[O-])cc4)n(-c4ccccc4)c4ccccc34)CC2)c1` [Example 789], the Ki came to 36.4 nM.

With `CC(C)C(=O)Nc1cccc(C2CCN(CCCc3c(-c4ccccc4I)[nH]c4ccccc34)CC2)c1` [Example 790], the Ki is 4.4 nM.

Take `CC(C)C(=O)Nc1cccc(C2CCN(CCCc3c(-c4ccccc4I)[nH]c4c3ccc3ccccc34)CC2)c1` [Example 791]: the Ki stood at 12.7 nM.

Regarding `CC(C)C(=O)Nc1cccc(C2CCN(CCCc3c(-c4ccccc4I)n(-c4ccccc4)c4ccccc34)CC2)c1` [Example 792], the Ki worked out at 122 nM.

Turning to `Cc1cccc2c(CCCN3CCC(c4cccc(NC(=O)C(C)C)c4)CC3)c(-c3ccccc3I)[nH]c12` [Example 793], the inhibitory constant (Ki) was 16.3 nM.

Turning to `CC(C)C(=O)Nc1cccc(C2CCN(CCCc3c(-c4ccccc4Br)n(C)c4ccccc34)CC2)c1` [Example 794], the Ki worked out at 4.9 nM.

For the molecule `CC1=C(C(=O)NCCCN2CCC(c3cccc(NC(=O)C(C)C)c3)CC2)C(c2ccc(F)c(F)c2)CC(=O)N1` (stereo not shown) [Example 795], the Ki was 51.1 nM.

Take `CC1=C(C(=O)NCCCN2CCC(c3cccc(NC(=O)C(C)C)c3)CC2)C(c2ccc(F)cc2F)CC(=O)N1` (stereo not shown) [Example 796]: the Ki is 43 nM.

With `COc1ccc(CCCCN2CCC(c3cccc(NC(=O)C(C)C)c3)CC2)cc1` [Example 797], the Ki was 42.4 nM.

Take `CCC(=O)Nc1ccc(C2CCN(CCCc3c(-c4ccccc4)n(-c4ccccc4)c4ccccc34)CC2)cc1` [Example 798]: the Ki is 475 nM.

Take `CCC(=O)Nc1ccc(C2CCN(CCC(c3ccccc3)c3ccccc3)CC2)cc1` [Example 799]: the inhibition constant Ki came to 371 nM.

Consider `CC(C)C(=O)Nc1cccc(C2CCN(CCCCc3ccc([N+](=O)[O-])cc3)CC2)c1` [Example 800], for which the inhibitory constant (Ki) came to 9.9 nM.

`CC(C)C(=O)Nc1cccc(C2CCN(CCc3cccc4ccccc34)CC2)c1` [Example 801]: the inhibition constant Ki was 311 nM.

On to `CC(C)C(=O)Nc1cccc(C2CCN(CCC(c3ccccc3)c3ccccc3)CC2)c1` [Example 802], for which the Ki turned out to be 36.7 nM.

For the molecule `COc1ccc(CCCN2CCC(c3cccc(NC(=O)C(C)C)c3)CC2)cc1OC` [Example 803], the inhibitory constant (Ki) came to 299 nM.

With `CC(C)C(=O)Nc1cccc(C2CCN(CCCc3ccccc3)CC2)c1` [Example 804], the Ki was 89.2 nM.

With `CC(C)C(=O)Nc1cccc(C2CCN(CCCc3ccncc3)CC2)c1` [Example 805], the inhibition constant (Ki) turned out to be 904 nM.

Consider `CC(C)C(=O)Nc1cccc(C2CCN(Cc3ccc(C(C)(C)C)cc3)CC2)c1` [Example 806], for which the Ki worked out at 14.1 nM.

In the case of `CC(C)C(=O)Nc1cccc(C2CCN(Cc3ccc(C(=O)c4ccccc4)cc3)CC2)c1` [Example 807], the inhibition constant (Ki) turned out to be 2.7 nM.

Turning to `CC(C)C(=O)Nc1cccc(C2CCN(CC[C@H](Oc3ccc(Cl)c(Cl)c3)c3ccccc3)CC2)c1` [Example 808], the Ki stood at 10.8 nM.

In the case of `CC(C)C(=O)Nc1cccc(C2CCN(CCCCCC(O)c3ccccc3F)CC2)c1` (stereo not shown) [Example 809], the Ki amounted to 56.8 nM.

Take `CC(C)C(=O)Nc1cccc(C2CCN(CCCCC(O)c3ccc(C(F)(F)F)cc3)CC2)c1` (stereo not shown) [Example 810]: the Ki is 191 nM.

With `CC(C)C(=O)Nc1cccc(C2CCN(CCCCC(O)c3ccc(F)cc3)CC2)c1` (stereo not shown) [Example 811], the Ki was 191 nM.

Regarding `CC(C)C(=O)Nc1cccc(C2CCN(CCCCCCC(O)c3ccccc3F)CC2)c1` (stereo not shown) [Example 812], the inhibition constant Ki worked out at 245 nM.

For the molecule `CC(C)C(=O)Nc1cccc(C2CCN(CCCCCC(O)c3cccc(F)c3)CC2)c1` (stereo not shown) [Example 813], the Ki was 57.3 nM.

On to `CC(C)C(=O)Nc1cccc(C2CCN(CCCCC(O)c3ccccc3F)CC2)c1` (stereo not shown) [Example 814], for which the Ki was 159 nM.

For `CC(C)C(=O)Nc1cccc(C2CCN(CCCCC(O)c3cccc(F)c3)CC2)c1` (stereo not shown) [Example 815], the inhibition constant Ki was 127 nM.

For the molecule `CC(C)C(=O)Nc1cccc(C2CCN(CCCCC(O)c3cccc(Cl)c3)CC2)c1` (stereo not shown) [Example 816], the Ki was determined as 89.6 nM.

In the case of `CC(C)C(=O)Nc1cccc(C2CCN(CCCCCC(O)c3ccc(F)cc3)CC2)c1` (stereo not shown) [Example 817], the inhibitory constant (Ki) came to 34.9 nM.

On to `CC(C)C(=O)Nc1cccc(C2CCN(CCCCCC(O)c3ccc(Cl)cc3)CC2)c1` (stereo not shown) [Example 818], for which the Ki amounted to 38.2 nM.

For the molecule `CC(C)C(=O)Nc1cccc(C2CCN(CCCCC(O)c3ccc(Cl)cc3)CC2)c1` (stereo not shown) [Example 819], the Ki was 80.2 nM.

`CCCC(=O)Nc1ccc(C2CCN(Cc3ccc4c(c3)c3ccccc3n4CC)CC2)cc1` [Example 820]: the inhibition constant Ki was 109 nM.

Regarding `CCC(=O)Nc1cccc(C2CCN(Cc3ccc4c(c3)c3ccccc3n4CC)CC2)c1` [Example 821], the inhibitory constant (Ki) stood at 12.1 nM.

In the case of `Cc1cc(CN2CCC(c3cccc(NC(=O)C(C)C)c3)CC2)cc2c3ccccc3n(C)c12` [Example 822], the Ki worked out at 1 nM.

Regarding `CCn1c2ccccc2c2cc(CN3CCC(c4cccc(NC(=O)C5CC5)c4)CC3)ccc21` [Example 823], the Ki was found to be 2.7 nM.

For the molecule `CCn1c2ccccc2c2cc(CN3CCC(c4cccc(N5CCCC5=O)c4)CC3)ccc21` [Example 824], the inhibition constant (Ki) came out at 36.5 nM.

In the case of `CC(C)C(=O)Nc1ccc(C2CCN(CCCCCn3ccc4ccccc43)CC2)cc1` [Example 825], the Ki was found to be 601 nM.

Consider `CCCC(=O)Nc1ccc(C2CCN(CCCCCn3ccc4ccccc43)CC2)cc1` [Example 826], for which the Ki was found to be 786 nM.

Take `CCC(=O)Nc1ccc(C2CCN(CCCCCn3ccc4ccccc43)CC2)cc1` [Example 827]: the Ki was 215 nM.

Consider `CCC(=O)Nc1ccc(C2CCN(CCCCCCn3ccc4ccccc43)CC2)cc1` [Example 828], for which the inhibition constant (Ki) stood at 516 nM.

Consider `CC(C)C(=O)Nc1cccc(C2CCN(Cc3cc4ccccc4n3C)CC2)c1` [Example 829], for which the inhibition constant (Ki) came out at 228 nM.

For `CC(C)C(=O)Nc1ccc(C2CCN(CCCCCCn3ccc4ccccc43)CC2)cc1` [Example 831], the Ki is 570 nM.

With `CC(C)C(=O)Nc1cccc(C2CCN(Cc3cccc4cc[nH]c34)CC2)c1` [Example 832], the inhibition constant (Ki) came to 614 nM.

For the molecule `COc1ccc(-n2ccc3cc(CN4CCC(c5cccc(NC(=O)C(C)C)c5)CC4)ccc32)cc1` [Example 833], the inhibition constant (Ki) is 27.5 nM.

With `COC(=O)c1ccc(-n2ccc3c(CN4CCC(c5cccc(NC(=O)C(C)C)c5)CC4)cccc32)cc1` [Example 834, METHYL 4-[4-({4-[3-(ISOBUTYRYLAMINO)PHENYL]-1-PIPERIDINYL)METHYL)-1H-INDOL-1-YL]BENZOATE], the inhibitory constant (Ki) was 38.3 nM.

`Cc1cccc(-n2ccc3cc(CN4CCC(c5cccc(NC(=O)C(C)C)c5)CC4)ccc32)c1` [Example 835]: the Ki worked out at 21.3 nM.

Turning to `CC(C)C(=O)Nc1cccc(C2CCN(Cc3cccc4c3ccn4-c3ccc(F)cc3)CC2)c1` [Example 836], the inhibition constant (Ki) worked out at 7.8 nM.

Regarding `CC(C)C(=O)Nc1cccc(C2CCN(CCCCn3ccc4ccccc43)CC2)c1` [Example 837], the Ki worked out at 35.9 nM.
